The results in this text go back to PubChem BioAssay (NCI).

Among the test systems are MDA-N; ACHN renal; A549 NSCLC; MOLT-4 leukemia; SW-620 colon; UACC-257 melanoma; NCI-H460 lung; CAKI-1 renal; M14 melanoma; SN12C renal.
Common to all, as to experiment: DTP human tumour cell line panel, 48 h

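Assay format: 96-well plates, 48-hour exposure. The concentration for full growth arrest is given as TGI.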 A value given as a limit tells only on which side of the number the result lay.

As to `Cc1c(NC(=S)Nc2ccc([N+](=O)[O-])cc2)c(=O)n(-c2ccccc2)n1C`, the TGI in the test with MDA-N, in the test on ACHN renal, with A549 NSCLC, in the test with MOLT-4 leukemia, with SW-620 colon and in the test on UACC-257 melanoma was > 100 µM throughout. Also, the TGI with NCI-H460 lung, with CAKI-1 renal and in the test with M14 melanoma was > 100 µM each time.
With `COc1ccc(N2C(=O)C3CC(c4ccc(Br)cc4)c4c([nH]c5ccccc45)C3C2=O)cc1` (stereo not given), the TGI in the test on ACHN renal turned out to be 15.4 µM; in the test on A549 NSCLC it was 6.96 µM; in the test on MOLT-4 leukemia, 29 µM; in the test with SW-620 colon it was 18.5 µM; with UACC-257 melanoma it was 36.8 µM; in the test on NCI-H460 lung it was 17.2 µM. For the same compound, the TGI was 29.6 µM with CAKI-1 renal, > 100 µM with M14 melanoma and 15.2 µM in the test on SN12C renal.
`O=P1(c2ccccc2)C(c2ccccc2)CCC1c1ccccc1` (stereo not given): the TGI in the test on MDA-N was > 100 µM; in the test with A549 NSCLC, > 100 µM; with MOLT-4 leukemia it was > 100 µM; with SW-620 colon, > 100 µM; with UACC-257 melanoma, > 100 µM; in the test on CAKI-1 renal, 73.9 µM. In addition, the TGI in the test on M14 melanoma and with SN12C renal was > 100 µM in each case.
As for `CC(=O)OCc1c(O)c2c([nH]c1=O)CCc1ccccc1-2`, the TGI in the test on ACHN renal is > 350 µM; in the test on A549 NSCLC, > 350 µM; in the test with MOLT-4 leukemia, > 350 µM; in the test with SW-620 colon, 111 µM; in the test on UACC-257 melanoma it was 203 µM; with NCI-H460 lung, 283 µM. The total growth inhibition concentration (TGI) in the test with CAKI-1 renal is 130 µM; in the test on SN12C renal, 155 µM.
Consider `ClCc1nc2ccccc2[nH]1`, for which the TGI in the test with ACHN renal, in the test on A549 NSCLC, in the test on MOLT-4 leukemia, in the test on SW-620 colon, in the test on UACC-257 melanoma and in the test on NCI-H460 lung was > 100 µM each time. The TGI in the test with CAKI-1 renal, in the test with M14 melanoma and with SN12C renal was > 100 µM each time.
As for `OC1NC2Nc3ccccc3NC2NC1O` (stereo not given), the TGI in the test on ACHN renal, with A549 NSCLC, in the test with MOLT-4 leukemia, with SW-620 colon, in the test on UACC-257 melanoma and in the test with NCI-H460 lung was > 100 µM in each case. For the same compound, the TGI in the test with CAKI-1 renal, with M14 melanoma and in the test on SN12C renal was > 100 µM throughout.
For `CC(C)(C)OC(=O)NCC(CNC(=O)OC(C)(C)C)C(N)=O`, the TGI in the test on ACHN renal, in the test on A549 NSCLC, with MOLT-4 leukemia, with SW-620 colon, with UACC-257 melanoma and in the test on NCI-H460 lung was > 100 µM in each case. Moreover, the TGI with CAKI-1 renal, with M14 melanoma and with SN12C renal was > 100 µM in each case.
Turning to `O=C1C(Cl)=C(Cl)C(=O)C(CCNc2nccs2)=C1Cl`, the TGI in the test on ACHN renal was 63.2 µM; in the test with A549 NSCLC it was > 100 µM; in the test with MOLT-4 leukemia, > 100 µM; in the test with SW-620 colon, > 100 µM; with UACC-257 melanoma it was 54.3 µM; with NCI-H460 lung it was > 100 µM. Besides, the TGI in the test on CAKI-1 renal is 37.1 µM; in the test with M14 melanoma, 42 µM; with SN12C renal, 73.2 µM.
On to `COC(NC(=O)Nc1ccc(C)cc1)(C(F)(F)F)C(F)(F)F`, for which the TGI with MDA-N was 94.6 µM; with ACHN renal, > 100 µM; in the test on A549 NSCLC, > 100 µM; in the test with MOLT-4 leukemia, 48.6 µM; with SW-620 colon, > 100 µM; with NCI-H460 lung it was > 100 µM. Further, the concentration for total growth inhibition (TGI) in the test on M14 melanoma and with SN12C renal was > 100 µM each time.
`CCCCN(CC)C(=O)C(=O)Cc1nc2ccc(C(=O)c3ccccc3)cc2[nH]c1=O`: the TGI in the test with ACHN renal is > 100 µM; in the test on A549 NSCLC, > 100 µM; with MOLT-4 leukemia, > 31.6 µM; in the test on SW-620 colon, > 100 µM; in the test on UACC-257 melanoma it was > 100 µM; in the test on NCI-H460 lung, > 100 µM. Besides, the TGI in the test with CAKI-1 renal, in the test with M14 melanoma and in the test with SN12C renal was > 100 µM each time.
As for `COC(=O)C1=C(C)NC(=O)N2[C@@H](CCOCc3ccccc3)CC[C@@H]12`, the TGI in the test with MDA-N, in the test on ACHN renal, in the test on A549 NSCLC, in the test with MOLT-4 leukemia, with SW-620 colon and in the test on UACC-257 melanoma was > 50 µM throughout. Moreover, the TGI with NCI-H460 lung, with CAKI-1 renal and in the test with M14 melanoma was > 50 µM throughout.
Take `COC(=O)C1CCC(=O)N1C(c1ccc(OC)cc1)c1cc(OC)c(OC)c(OC)c1` (stereo not given): the TGI was 1.97 µM in the test on MDA-N; > 100 µM in the test with ACHN renal; > 100 µM in the test on A549 NSCLC; > 61.1 µM in the test with MOLT-4 leukemia; > 100 µM in the test on SW-620 colon; > 100 µM in the test with UACC-257 melanoma. The TGI with CAKI-1 renal was > 100 µM; in the test with M14 melanoma it was 21.6 µM; in the test on SN12C renal it was > 100 µM.
`Fc1cc(C2=Nn3c(COc4ccccc4Cl)nnc3S/C2=C\c2ccc(Cl)cc2)c(Cl)cc1Cl`: the TGI was 6.23 µM with MDA-N; 39.1 µM in the test on ACHN renal; > 100 µM in the test on MOLT-4 leukemia; 39.9 µM in the test on SW-620 colon; > 100 µM in the test on UACC-257 melanoma; > 100 µM in the test with NCI-H460 lung. The TGI was 31.5 µM in the test on CAKI-1 renal and 17 µM with M14 melanoma.
As to `COC(=O)c1ccc(NCc2cc(OC)ccc2OC)cc1`, the concentration for total growth inhibition (TGI) with MDA-N, in the test on ACHN renal, in the test with A549 NSCLC, in the test on MOLT-4 leukemia, in the test on SW-620 colon and in the test on UACC-257 melanoma was > 100 µM throughout. For the same compound, the TGI with CAKI-1 renal and in the test with M14 melanoma was > 100 µM in each case.
With `COC(=O)c1cc2c(c(C(=O)OC)c1)CCC2`, the TGI in the test with MDA-N, in the test on ACHN renal, in the test on A549 NSCLC, in the test with MOLT-4 leukemia, in the test on SW-620 colon and in the test on UACC-257 melanoma was > 100 µM throughout. In addition, the total growth inhibition concentration (TGI) in the test on NCI-H460 lung, in the test with CAKI-1 renal and with M14 melanoma was > 100 µM in each case.

The term TGI denotes the concentration giving total growth inhibition. Read a low TGI as greater sensitivity of the cells.
